For this test, the system named is TPA-induced Mouse Ear Inflammation. Put plainly: Assay (g): TPA-induced mouse ear inflammation (ear edema, MPO). In kind it is in vivo. Here is the method: Male Balb/c inbred mice are obtained from Charle River Breeding Laboratories (Kingston, N.Y.). Within a single experiment mice (22-25 g) are age-matched. These in vivo experiments typically involve the use of 5-6 animals/group.
TPA (12-0-tetradecanoylphorbol 13-acetate) (Sigma Chemical Company) in acetone ([…]) is applied to the inner and outer surfaces of the left ear of BALB/c male mice. The thickness of both ears is then measured with a dial micrometer (Mitutoyo, Japan) at both 2 and 4 hours after treatment, and the data expressed as the change in thickness (10^-3 cm) between treated and untreated ears. […] After measuring the edema, the inflammed left ears are removed and stored at -70° C. until they were assayed for MPO (myeloperoxidase) activity where appropriate.
On the day of the assay, partially thawed ear tissues are minced and then homogenized (10% w/v) with a Tissumizer homogenizer (Tekmar Co.) in 50 mM phosphate buffer (pH 6) containing 0.5% HTAB. The tissue homogenates are taken through three cycles of freeze-thaw, followed by brief sonication (10 sec). The method of Bradley et at. is used with modifications as described. […] Supernatant MPO activity is quantified kinetically (change in absorbance measured over 3 min, sampled at 15-sec intervals) using a Beckman DU-7 spectrophotometer and a Kinetics Analysis package (Beckman Instruments, Inc.). One unit of MPO activity is defined as that degrading one micromole of peroxide per minute at 25° C.
Statistical analysis is done using Student's "t" test.

Each structure is given as a SMILES string.

Take `NC(=O)N(O)CCC(CSc1ccc(Cc2ccccc2)cc1)NC(=O)CCCCCCc1ccccc1` (racemic) [Example 1, N-[3-(7-phenylheptylamido)-4-(4-phenylmethyl)phenylthio]-butyl-N-hydroxy urea]: under “topically, 1 mg/ear”, the “MPO activity, percent change, TPA ear model” value is reported as -68% and the “ear swelling (edema), percent change, TPA ear model” value is listed as -43%. The “inhibition of inflammatory cell infiltration, TPA ear model” value (typically dosed at 50 mg/ear) is given as “demonstrated activity as an inhibitor of the inflammatory cell infiltration”.

Source of the values: patent US5496855A, “Anti-inflammatory compounds” (SmithKline Beecham Corp., priority 1995, dated 1996).
